BindingDB's records for patent US20250304587 (Jiangsu Tasly Diyi Pharmaceutical, 2025)

Molecular target: Cytochrome P450 2C19 (Homo sapiens, UniProt P33261)
Assay: Evaluation of Compound Inhibition of Cytochrome P450
Protocol: Enzymatic experiments were performed to quantify the inhibition of CYP450 enzyme activity of each isoform of CYP450 by small molecule inhibitors through fluorescence generated by the oxidation of the substrate by cytochrome P450. […] The Solution B composition used for the experiment was: 40 U/mL G6PDH (Sigma-aldrich, Cat #G6378). The substrate mix was 0.05× Solution A, 0.01× Solution B, 50 mM Potassium Phosphate, 0.01 mM BOMCC/0.01 mM EOMCC/0.001 mM DBOMF.

Chain of Cytochrome P450 2C19 (P33261 whole entry): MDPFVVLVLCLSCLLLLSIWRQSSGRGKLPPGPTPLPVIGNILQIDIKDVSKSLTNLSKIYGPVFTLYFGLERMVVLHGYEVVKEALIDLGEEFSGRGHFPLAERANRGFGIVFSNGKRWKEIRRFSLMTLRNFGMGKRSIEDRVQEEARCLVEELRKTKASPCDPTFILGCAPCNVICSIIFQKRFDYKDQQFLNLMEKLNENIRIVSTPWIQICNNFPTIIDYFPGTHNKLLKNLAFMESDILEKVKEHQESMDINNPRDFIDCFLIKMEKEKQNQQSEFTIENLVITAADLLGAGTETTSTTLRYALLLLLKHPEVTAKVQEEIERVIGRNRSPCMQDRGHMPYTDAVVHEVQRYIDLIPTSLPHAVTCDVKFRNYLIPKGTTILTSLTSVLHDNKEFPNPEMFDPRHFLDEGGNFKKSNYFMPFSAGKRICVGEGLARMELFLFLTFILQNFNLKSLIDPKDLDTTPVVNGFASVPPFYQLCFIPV

Row | SMILES | IC50 [µM]
1 | C=CCn1c(=O)c2cnc(Nc3ccc(N4CC5CC(C4)N5C)cc3)nc2n1-c1ccc2c(n1)[C@@](C)(O)C1(CC2)CC1 [US20250304587, Compound 7a] | 1 to 10
2 | C=CCn1c(=O)c2cnc(Nc3ccc(N4CCC5(CCN(C)CC5)CC4)cc3)nc2n1-c1ccc2c(n1)[C@](C)(O)C1(CC2)CC1 (racemic) [US20250304587, Compound 44] | 1 to 10
